This note sets out measurements from patent EP0548931A1, “Material for controlling pests” (SUMITOMO CHEMICAL COMPANY, LIMITED, priority 1991, dated 1993).

The test system of one assay is Thrips palmi. Kind of assay: Test Example 12: blue polyethylene sheet (Production Example 10) in glass vessel with cucumber seedlings, count of adults. Format: in vivo. Conditions: 28° ±1°C. An excerpt:
The same procedure as in Production Example 9 is repeated except that a colored master batch for blue coloration (SPEM 510 produced by Sumika Color Co.; pigment content: 12 wt.%) replaces the colored master batch for yellow coloration. Thus, a sheet-form material for controlling pests is obtained.
Soil was placed on the bottom of a glass vessel of 70 cm x 35 cm x 35 cm in size. Three cucumber seedings, on which Thrips palmi had been parasitized, were planted at the central part of the glass vessel. After three days, the material for controlling pests prepared according to Production Example 10 was formed into a size of 15 cm x 15 cm and set at a height of 5 cm above the ground. On the other hand, the same test was carried out by setting a blue film containing no insect growth regulator, a control, in the same manner as in setting the above material for controlling pests.
On the predetermined day, the number of Thrips palmi adults parasitized on the cucumbers was counted. The tests were carried out in a room kept at 28° ±1°C.

The test system of the next assay is greenhouse whiteflies. In words: Test Example 1: yellow cloth material (Production Example 2) set beside tomato, count of adults. Format: in vivo, Trialeurodes vaporariorum. As to the method: 0.4 Part of the insect growth regulator is dissolved in 40 parts of acetone and further 0.8 part of rape seed oil is added thereto. Thirty-one milliliters of the resulting solution is absorbed in a yellow cloth of 21 cm x 92 cm in size. Acetone is then vaporized to obtain a material for controlling pests containing 0.16 mg/cm² of the active ingredient. A material for controlling pests with pyriproxyfen as insect growth regulator was prepared according to Production Example 2. It was set at the same height as that of a container (80 cm x 112 cm x 45 cm) in which tomato having greenhouse whiteflies parasitized thereon had been planted. On the other hand, a yellow cloth containing no insect growth regulator was set as a control at a distance of about 8 m. On the predetermined day, the number of greenhouse whitefly adults parasitized on the tomato was counted.

Assay [1] relates to sweetpotato whitefly. In words: Test Example 5: gravure-printed yellow Kent paper (Production Example 4) in net room with cabbages, count of larvae. Particulars: after 1 month; larvae parasitized on five randomly selected cabbages; yellow Kent paper 10 cm x 2 m, 5 g/m²; 800 adults released. Format: in vivo, Bemisia tabaci. As to the method: Five parts of the insect growth regulator is dissolved in 65 parts of a vegetable oil, and then 20 parts of a mineral oil and 10 parts of a surface active agent are added thereto and mixed. The resulting solution is applied to a roll of yellow Kent paper of 50 cm in width and 2,000 m in length by gravure printing to obtain a material for controlling pests containing 5 g/m² of the active ingredient. […] A material for controlling pests prepared according to Production Example 4 with pyriproxyfen (insect growth regulator), a cotton seed oil (vegetable oil), tetradecane (mineral oil) and Span 85® (surface active agent produced by ICI Americas Inc.) was formed into a size of 10 cm x 2 m. It was set at a height of 30 cm above the floor surface between the rows of cabbages. Eight hundred adults of sweetpotato whitefly were released in the net room. After 1 month, the number of larvae parasitized on five randomly selected cabbages was counted.

The next assay deals with sweetpotato whiteflies. Kind of assay: Test Example 11: yellow polyethylene sheet (Production Example 9), pest-controlling effect, count of adults. Format: in vivo, Bemisia tabaci. The procedure: Ninety-eight parts by weight of a polyethylene resin (Sumikathene®; a registered trade mark of Sumitomo Chemical Co., Ltd.), 1 part by weight of pyriproxyfen, a juvenile hormone-like compound, and 1 part by weight of a polyethylene colored master batch for yellow coloration (SPEM 305 produced by Sumika Color Co., pigment content: 12 wt.%) are kneaded with a pressure kneader and then pelletized. The resulting pellet is extruded through an extruder equipped with a T-dies at 160° to 180°C to obtain a sheet-form material for controlling pests of 1 mm in thickness. A sheet-like material for controlling pests prepared according to Production Example 9 was formed into a size of 15 cm x 15 cm. It was set at the same height as that of a container (80 cm x 112 cm x 45 cm) in which tomato having greenhouse whiteflies parasitized thereon had been planted. On the other hand, a yellow film containing no insect growth regulator was set as a control in the same manner as in setting the above material for controlling pests. On the predetermined day, the number of greenhouse whitefly adults parasitized on the tomato was counted. In the same manner as in Test Example 10, the pest-controlling effect on sweetpotato whiteflies was examined.

Assay [2] has as its system sweetpotato whitefly. Kind of assay: Test Example 8: yellow Kent paper (Production Example 7) in net cage, hatching inhibition. The format is in vivo, Bemisia tabaci. Particulars: yellow Kent paper 15 cm x 15 cm, 0.01 g/m², cotton seed oil; eggs laid on kidney bean. As to the method: 0.01 Part of the insect growth regulator is dissolved in 99.99 parts of a vegetable oil. The resulting solution is applied to a roll of yellow Kent paper of 50 cm in width and 2,000 m in length by gravure printing to obtain material for controlling pests containing 0.01 g/m² of the active ingredient. A material for controlling pests containing pyriproxyfen (insect growth regulator) and a cotton seed oil (vegetable oil) prepared according to Production Example 7 was formed into a size of 15 cm x 15 cm. It was set on one wall surface of a nylon net cage of 30 cm x 30 cm x 30 cm in size. About 100 adults of sweetpotato whitefly were released in the cage together with kidney bean on which the adults had been parasitized. One day after release of the adults, a potted kidney bean having no adults parasitized thereon was set in the cage for oviposition. Among the eggs laid on the potted kidney bean until the next day, the number of unhatched eggs was counted.

In assay [3] the test system is sweetpotato whitefly. Kind of assay: Test Example 9: yellow Kent paper (Production Example 8) in net cage, hatching inhibition. Format: in vivo, Bemisia tabaci. Particulars: yellow Kent paper 15 cm x 15 cm, 1 g/m², Solvesso 200; eggs laid on kidney bean. The procedure:
Ten parts of the insect growth regulator is dissolved in 90 parts of a mineral oil. 0.225 Gram of the resulting solution is absorbed in a square yellow Kent paper having a side of 15 cm to obtain a material for controlling pests containing 1 g/m² of the active ingredient. A material for controlling pests containing pyriproxyfen (insect growth regulator) and Solvesso 200 (mineral oil) prepared according to Production Example 8 was formed into a size of 15 cm x 15 cm. It was set on one wall surface of a nylon net cage of 30 cm x 30 cm x 30 cm in size. About 100 adults of sweetpotato whitefly were released in the cage together with kidney bean on which the adults had been parasitized. One day after release of the adults, a potted kidney bean having no adults parasitized thereon was set in the cage for oviposition. Among the eggs laid on the potted kidney bean until the next day, the number of untached eggs was counted.

As to `CC(COc1ccc(Oc2ccccc2)cc1)Oc1ccccn1` (centres unmarked) [pyriproxyfen, 4-phenoxyphenyl 2-(2-pyridyloxy)propyl ether], the “number of Thrips palmi adults parasitized on the cucumbers” value in the assay on Thrips palmi (0 days elapsed after setting, blue polyethylene sheet 15 cm x 15 cm) is recorded as 3; in the assay with Thrips palmi (7 days elapsed after setting, blue polyethylene sheet), 4; in the assay with Thrips palmi (14 days elapsed after setting, blue polyethylene sheet), 3; in the assay with Thrips palmi (21 days elapsed after setting, blue polyethylene sheet), 2. In addition, the “number of greenhouse whitefly adults parasitized on the tomato (mean value per cup)” value in the assay with greenhouse whiteflies (0 days elapsed after setting, 0.16 mg/cm² active ingredient, rape seed oil) is given as 102; in the assay on greenhouse whiteflies (7 days elapsed after setting, 0.16 mg/cm²) it was 82; in the assay on greenhouse whiteflies (14 days elapsed after setting, 0.16 mg/cm²), 82; with greenhouse whiteflies (18 days elapsed after setting, 0.16 mg/cm²) it was 53; in the assay on greenhouse whiteflies (28 days elapsed after setting, 0.16 mg/cm²) it was 18; with greenhouse whiteflies (35 days elapsed after setting, 0.16 mg/cm²), 12. For the same molecule, the “number of greenhouse whitefly adults parasitized on the tomato (mean value per cup)” value with greenhouse whiteflies (42 days elapsed after setting, 0.16 mg/cm²) was 5. The Number of larvae with sweetpotato whitefly [1] was 192. Besides, the “number of sweetpotato whitefly adults (pest-controlling effect)” value in the assay on sweetpotato whiteflies (0 days elapsed after setting) came out at 70; in the assay with sweetpotato whiteflies (7 days elapsed after setting), 30; in the assay on sweetpotato whiteflies (14 days elapsed after setting) it was 20; in the assay with sweetpotato whiteflies (18 days elapsed after setting), 18; in the assay with sweetpotato whiteflies (29 days elapsed after setting), 8; in the assay on sweetpotato whiteflies (35 days elapsed after setting), 5. Moreover, the “Hatching inhibitory rate (%)” value is given as 100% in the assay with sweetpotato whitefly [2] and 98.2% in the assay on sweetpotato whitefly [3].
